Measured values published in patent US12410171B2, “Tropomyosin receptor kinase (TRK) degradation compounds and methods of use” (Cullgen (Shanghai), Inc., priority 2020, dated 2025).

The compounds below were run against T1, TPM3-TRKA fusion protein (Homo sapiens, UniProt P04629) (assay: TPM3-TRKA fusion protein levels in KM12 cells (Western blot)). Settings: 16 h; TPM3-TRKA degradation in KM12 cells at 10 nM compound, category of percentage degradation; read-out: Degradation (at 10 nM).
T1 construct: The resulted chimeric proteins always retain the kinase domain of TRK proteins; TPM3 (fusion partner, N-terminal part of tropomyosin alpha-3, P06753); endogenous in cells; host or cells: KM12 colon cancer cells; the other entry of the earlier key: TPM3 (P06753, Tropomyosin alpha-3 chain)
T1 sequence (P04629 with tags, fused parts or gaps): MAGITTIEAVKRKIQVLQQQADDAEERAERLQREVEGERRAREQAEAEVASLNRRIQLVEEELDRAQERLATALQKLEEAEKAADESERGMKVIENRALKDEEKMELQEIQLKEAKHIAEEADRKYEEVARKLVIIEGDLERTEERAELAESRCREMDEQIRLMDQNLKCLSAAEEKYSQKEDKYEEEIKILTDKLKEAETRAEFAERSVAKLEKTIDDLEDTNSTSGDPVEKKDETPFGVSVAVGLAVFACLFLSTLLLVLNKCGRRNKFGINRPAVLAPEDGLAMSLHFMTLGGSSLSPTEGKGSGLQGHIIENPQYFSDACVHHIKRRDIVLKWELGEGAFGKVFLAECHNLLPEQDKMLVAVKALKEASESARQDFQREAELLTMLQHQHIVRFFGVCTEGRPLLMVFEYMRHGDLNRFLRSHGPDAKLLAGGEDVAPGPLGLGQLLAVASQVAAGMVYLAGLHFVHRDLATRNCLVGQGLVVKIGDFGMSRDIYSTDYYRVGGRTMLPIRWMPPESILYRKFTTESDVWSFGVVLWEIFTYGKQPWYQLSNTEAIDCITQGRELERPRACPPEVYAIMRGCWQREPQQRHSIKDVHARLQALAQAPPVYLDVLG
Format: cell-based
Method: KM12 cells were treated with DMSO or indicated compounds at 100 nM for 16 hours.
KM12 cells were treated with DMSO or indicated compounds at 0. 1 nM, 1 nM or 10 nM for 16 hours.
KM12 cells were treated with DMSO or indicated compounds at various concentrations for 16 hours.
KM12 cells were treated with DMSO or indicated compounds at various concentrations for 4 hours.
KM12 cells (a cancer model comprising a colon cancer cell line) were treated with DMSO or indicated compounds at various concentrations for 4 hours.
KM12 cells were treated with heterobifunctional compounds or their corresponding control compounds at 10 nM or 100 nM for 16 hours.
KM12 cells were treated with heterobifunctional compounds or their corresponding control compounds at 0.4-30 nM for 8-16 hours. […] Cells were authenticated using the short tandem repeat (STR) assays. […] Stable cell lines were established by lentivirus transduction, selected and maintained in medium containing 1 μg/mL puromycin (Beyotime Biotechnology).
Cultured cells were washed with cold PBS once and lysed in cold RIPA buffer supplemented with protease inhibitors and phosphatase inhibitors (Beyotime Biotechnology). The solutions were then incubated at 4° C. for 30 minutes with gentle agitation to fully lyse cells. For tumor tissues, tumors were cut into small pieces, milled with cold RIPA buffer using a mechanical homogenizer and lysed for 1 hour at 4° C. Cell lysates were centrifuged at 13,000 rpm for 10 minutes at 4° C. and pellets were discarded. Total protein concentrations in the lysates were determined by BCA assays (Beyotime Biotechnology). Cell lysates were mixed with Laemmli loading buffer to 1× and heated at 99° C. for 5 min. Proteins were resolved on SDS-PAGE and visualized by chemiluminescence. Images were taken by a ChemiDoc MP Imaging system (Bio-Rad). Protein bands were quantitated using the software provided by Bio-Rad.
`O=C1CCC(N2C(=O)c3cccc(NCCCCCCC(=O)N4CCN(c5cccc(-c6cnc7ccc(N8CCC[C@@H]8c8cccc(F)c8)nn67)n5)CC4)c3C2=O)C(=O)N1` (stereo partly drawn) [CPD-009, 2-(2,6-Dioxopiperidin-3-yl)-4-((7-(4-(6-(6-((R)-2-(3-fluorophenyl)pyrrolidin-1-yl)imidazo[1,2-b]pyridazin-3-yl)pyridin-2-yl)piperazin-1-yl)-7-oxoheptyl)amino) isoindoline-1,3-dione] showed a percent degradation of TPM3-TRKA protein at 0.01 µM of 50 to 80%.
Work on `O=C1CCC(N2C(=O)c3cccc(NCCCC(=O)N4CCN(c5cccc(-c6cnc7ccc(N8CCC[C@@H]8c8cccc(F)c8)nn67)n5)CC4)c3C2=O)C(=O)N1` (stereo partly drawn) [CPD-013, 2-(2,6-Dioxopiperidin-3-yl)-4-((4-(4-(6-(6-((R)-2-(3-fluorophenyl)pyrrolidin-1-yl)imidazo[1,2-b]pyridazin-3-yl)pyridin-2-yl)piperazin-1-yl)-4-oxobutyl)amino) isoindoline-1,3-dione] yielded a percent degradation of TPM3-TRKA protein at 0.01 µM greater than 80%.
In the case of `O=C1CCC(N2C(=O)c3cccc(NCCCCC(=O)N4CCN(c5cccc(-c6cnc7ccc(N8CCC[C@@H]8c8cccc(F)c8)nn67)n5)CC4)c3C2=O)C(=O)N1` (stereo partly drawn) [CPD-014, 2-(2,6-Dioxopiperidin-3-yl)-4-((5-(4-(6-(6-((R)-2-(3-fluorophenyl)pyrrolidin-1-yl)imidazo[1,2-b]pyridazin-3-yl)pyridin-2-yl)piperazin-1-yl)-5-oxopentyl)amino) isoindoline-1,3-dione], the percent degradation of TPM3-TRKA protein at 0.01 µM is reported as greater than 80%.
`O=C1CCC(N2C(=O)c3cccc(NCCCCCC(=O)N4CCN(c5cccc(-c6cnc7ccc(N8CCC[C@@H]8c8cccc(F)c8)nn67)n5)CC4)c3C2=O)C(=O)N1` (stereo partly drawn) [CPD-015, 2-(2,6-Dioxopiperidin-3-yl)-4-((6-(4-(6-(6-((R)-2-(3-fluorophenyl)pyrrolidin-1-yl)imidazo[1,2-b]pyridazin-3-yl)pyridin-2˜yl)piperazin-1-yl)-6-oxohexyl)amino) isoindoline-1,3-dione] showed a percent degradation of TPM3-TRKA protein at 0.01 µM greater than 80%.
In the case of `Cc1ncsc1-c1ccc(CNC(=O)[C@@H]2C[C@@H](O)CN2C(=O)[C@@H](NC(=O)CCCCCCCCC(=O)N2CCN(c3cccc(-c4cnc5ccc(N6CCC[C@@H]6c6cccc(F)c6)nn45)n3)CC2)C(C)(C)C)cc1` [CPD-017, (28,4R)-1-((S)-2-(10-(4-(6-(6-((R)-2-(3-Fluorophenyl)pyrrolidin-1-yl)imidazo[1,2-b]pyridazin-3-yl)pyridin-2-yl)piperazin-1-yl)-10-oxodecanamido)-3,3-dimethylbutanoyl)-4-hydroxy-N-(4-(4-methylthiazol-S-yl)benzyl)pyrrolidine-2-carboxamide], the percent degradation of TPM3-TRKA protein at 0.01 µM is reported as less than 50%.
With `O=C1CCC(N2C(=O)c3cccc(NCCOCCOCCOCCOCCC(=O)N4CCN(c5cccc(-c6cnc7ccc(N8CCC[C@@H]8c8cccc(F)c8)nn67)n5)CC4)c3C2=O)C(=O)N1` (stereo partly drawn) [CPD-021, 2-(2,6-Dioxopiperidin-3-yl)-4-((15-(4-(6-(6-((R)-2-(3-fluorophenyl)pyrrolidin-1-yl)imidazo[1,2-b]pyridazin-3-yl)pyridin-2-yl)piperazin-1-yl)-15-oxo-3,6,9,12-tetraoxapentadecyl)amino) isoindoline-1,3-dione] the percent degradation of TPM3-TRKA protein at 0.01 µM was greater than 80%.
`Cc1ncsc1-c1ccc(CNC(=O)[C@@H]2C[C@@H](O)CN2C(=O)[C@@H](NC(=O)CCCCCCCCCC(=O)N2CCN(c3cccc(-c4cnc5ccc(N6CCC[C@@H]6c6cccc(F)c6)nn45)n3)CC2)C(C)(C)C)cc1` [CPD-022, (25,4R)-1-((S)-2-(11-(4-(6-(6-((R)-2-(3-Fluorophenyl)pyrrolidin-1-yl)imidazo[1,2-b]pyridazin-3-yl)pyridin-2-yl)piperazin-1-yl)-11-oxoundecanamido)-3,3-dimethylbutanoyl)-4-hydroxy-N-(4-(4-methylthiazol-5-yl)benzyl)pyrrolidine-2-carboxamide] was tested, and the percent degradation of TPM3-TRKA protein at 0.01 µM was 50 to 80%.
For `O=C1CCC(N2C(=O)c3cccc(NCC(=O)N4CCN(c5cccc(-c6cnc7ccc(N8CCC[C@@H]8c8cccc(F)c8)nn67)n5)CC4)c3C2=O)C(=O)N1` (stereo partly drawn) [CPD-023, 2-(2,6-Dioxopiperidin-3-yl)-4-((2˜ (4-(6-(6-((R)-2-(3-fluorophenyl)pyrrolidin-1-yl)imidazo[1,2-b]pyridazin-3-yl)pyridin-2-yl)piperazin-1-yl)-2-oxoethyl)amino) isoindoline-1,3-dione], the percent degradation of TPM3-TRKA protein at 0.01 µM was greater than 80%.
Compound `O=C1CCC(N2C(=O)c3cccc(NCCCCCCCC(=O)N4CCN(c5cccc(-c6cnc7ccc(N8CCC[C@@H]8c8cccc(F)c8)nn67)n5)CC4)c3C2=O)C(=O)N1` (stereo partly drawn) [CPD-024, 2-(2,6-Dioxopiperidin-3-yl)-4-((8-(4-(6-(6-((R)-2-(3-fluorophenyl)pyrrolidin-1-yl)imidazo[1,2-b]pyridazin-3-yl)pyridin-2-yl)piperazin-1-yl)-8-oxooctyl)amino) isoindoline-1,3-dione] has a percent degradation of TPM3-TRKA protein at 0.01 µM greater than 80%.
With `O=C1CCC(N2C(=O)c3cccc(NCCOCCOCCOCCOCCOCCC(=O)N4CCN(c5cccc(-c6cnc7ccc(N8CCC[C@@H]8c8cccc(F)c8)nn67)n5)CC4)c3C2=O)C(=O)N1` (stereo partly drawn) [CPD-025, 2-(2,6-Dioxopiperidin-3-yl)-4-((18-(4-(6-(6-((R)-2-(3-fluorophenyl)pyrrolidin-1-yl)imidazo[1,2-b]pyridazin-3-yl)pyridin-2-yl)piperazin-1-yl)-18-oxo-3,6,9,12,15-pentaoxaoctadecyl)amino) isoindoline-1,3-dione] the percent degradation of TPM3-TRKA protein at 0.01 µM was greater than 80%.
`O=C1CCC(N2C(=O)c3cccc(NCCC(=O)N4CCN(c5cccc(-c6cnc7ccc(N8CCC[C@@H]8c8cccc(F)c8)nn67)n5)CC4)c3C2=O)C(=O)N1` (stereo partly drawn) [CPD-026, 2-(2,6-Dioxopiperidin-3-yl)-4-((3-(4-(6-(6-((R)-2-(3-fluorophenyl)pyrrolidin-1-yl)imidazo[1,2-b]pyridazin-3-yl)pyridin-2-yl)piperazin-1-yl)-3-oxopropyl)amino) isoindoline-1,3-dione] was tested, and the percent degradation of TPM3-TRKA protein at 0.01 µM was 50 to 80%.
For `O=C1CCC(N2C(=O)c3cccc(NCCOCCC(=O)N4CCN(c5cccc(-c6cnc7ccc(N8CCC[C@@H]8c8cccc(F)c8)nn67)n5)CC4)c3C2=O)C(=O)N1` (stereo partly drawn) [CPD-027, 2-(2,6-Dioxopiperidin-3-yl)-4˜ ((2-(3-(4˜ (6-(6-((R)-2-(3-fluorophenyl)pyrrolidin-1-yl)imidazo[1,2-b]pyridazin-3-yl)pyridin-2-yl)piperazin-1-yl)-3-oxopropoxy)ethyl)amino) isoindoline-1,3-dione], the percent degradation of TPM3-TRKA protein at 0.01 µM was greater than 80%.
`O=C1CCC(N2C(=O)c3cccc(NCCOCCOCCC(=O)N4CCN(c5cccc(-c6cnc7ccc(N8CCC[C@@H]8c8cccc(F)c8)nn67)n5)CC4)c3C2=O)C(=O)N1` (stereo partly drawn) [CPD-028, 2-(2,6-Dioxopiperidin-3-yl)-4-((2-(2-(3-(4-(6-(6-((R)-2-(3-fluorophenyl)pyrrolidin-1-yl)imidazo[1,2-b]pyridazin-3-yl)pyridin-2-yl)piperazin-1-yl)-3-oxopropoxy)ethoxy)ethyl)amino) isoindoline-1,3-dione] showed a percent degradation of TPM3-TRKA protein at 0.01 µM greater than 80%.
For `Cc1ncsc1-c1ccc(CNC(=O)[C@@H]2C[C@@H](O)CN2C(=O)[C@@H](NC(=O)CCCCCCC(=O)N2CCN(c3cccc(-c4cnc5ccc(N6CCC[C@@H]6c6cccc(F)c6)nn45)n3)CC2)C(C)(C)C)cc1` [CPD-029, (25,4R)-1-((S)-2-(8-(4-(6-(6-((R)-2-(3-Fluorophenyl)pyrrolidin-1-yl)imidazo[1,2-b]pyridazin-3-yl)pyridin-2-yl)piperazin-1-yl)-8-oxooctanamido)-3,3-dimethylbutanoyl)-4-hydroxy-N-(4-(4-methylthiazol-5-yl)benzyl)pyrrolidine-2-carboxamide], the percent degradation of TPM3-TRKA protein at 0.01 µM was 50 to 80%.
In the case of `O=C1CCC(N2C(=O)c3cccc(NCCOCCC(=O)N4CCN(c5ccc(C(=O)Nc6n[nH]c7ccc(Cc8cc(F)cc(F)c8)cc67)c(NC6CCOCC6)c5)CC4)c3C2=O)C(=O)N1` (centres unmarked) [CPD-030, N-(5-(3,5-Difluorobenzyl)-1H-indazol-3-yl)-4-(4-(3-(2-((2-(2,6-dioxopiperidin-3-yl)-1,3-dioxoisoindolin-4-yl)amino)ethoxy)propanoyl)piperazin-1-yl)-2-((tetrahydro-2H-pyran-4-yl)amino)benzamide], the percent degradation of TPM3-TRKA protein at 0.01 µM is reported as greater than 80%.
With `O=C1CCC(N2C(=O)c3cccc(NCCOCCOCCOCCOCCC(=O)N4CCN(c5ccc(C(=O)Nc6n[nH]c7ccc(Cc8cc(F)cc(F)c8)cc67)c(NC6CCOCC6)c5)CC4)c3C2=O)C(=O)N1` (centres unmarked) [CPD-031, N-(5-(3,5-Difluorobenzyl)-1H-indazol-3-yl)-4-(4-(1-((2-(2,6-dioxopiperidin-3-yl)-1,3-dioxoisoindolin-4-yl)amino)-3,6,9,12-tetraoxapentadecan-15-oyl)piperazin-1˜yl)-2-((tetrahydro-2H-pyran-4-yl)amino)benzamide] the percent degradation of TPM3-TRKA protein at 0.01 µM was greater than 80%.

Same assay, conditions: KM12 cells, 100 nM, indicated incubation time, Western blot (FIG. 2)
With `O=C1CCC(N2C(=O)c3cccc(NCCOCCC(=O)N4CCN(c5cccc(-c6cnc7ccc(N8CCC[C@@H]8c8cccc(F)c8)nn67)n5)CC4)c3C2=O)C(=O)N1` (stereo partly drawn) [CPD-027, 2-(2,6-Dioxopiperidin-3-yl)-4˜ ((2-(3-(4˜ (6-(6-((R)-2-(3-fluorophenyl)pyrrolidin-1-yl)imidazo[1,2-b]pyridazin-3-yl)pyridin-2-yl)piperazin-1-yl)-3-oxopropoxy)ethyl)amino) isoindoline-1,3-dione] the TPM3-TRKA protein levels was “rapidly reduced TPM3-TRKA protein levels”.
